pEC50: −log10 of the molar value. Read-outs that look alike come from different tables or passages of the source.
Test system: influenza virus A/Taiwan/1/86 (H1N1)
Assay: organism not typed
Format: cell-based
Settings: 72 h, MDCK cells infected by influenza A/Taiwan/1/86 (H1N1), three days post-virus exposure, ATP levels; for pEC50: read-out: FLU-AVE-MDCK-ATP-TW_EC50; for EC50: read-out: FLU-AVE-MDCK-ATP-TW_pEC50 (converted)

| SMILES | pEC50 | EC50 |
| --- | --- | --- |
| CC(C)(c1cccs1)C(CC(=O)O)Nc1nc(-c2c[nH]c3ncc(Cl)cc23)c(C#N)cc1F (stereo not drawn) | 9.24 | 0.631 nM |
| CC(C)(c1cccs1)C(CC(=O)O)Nc1nc(-c2c[nH]c3ncc(Cl)cc23)ncc1F (stereo not drawn) | 8.59 | 2.51 nM |
| CC(C)(c1nccs1)C(CC(=O)O)Nc1nc(-c2c[nH]c3ncc(Cl)cc23)c(C#N)cc1F (stereo not drawn) | 9.57 | 0.251 nM |
| Cn1ccc(C(C)(C)C(CC(=O)O)Nc2nc(-c3c[nH]c4ncc(Cl)cc34)c(C#N)cc2F)n1 (stereo not drawn) | 8.59 | 2.51 nM |
| CC1(C(CC(=O)O)Nc2nc(-c3c[nH]c4ncc(Cl)cc34)ncc2F)COC1 (stereo not drawn) | 6.01 | 1000 nM |
| C=CCC(C)(C)C(CC(=O)O)Nc1nc(-c2c[nH]c3ncc(Cl)cc23)c(C#N)cc1F (stereo not drawn) | 9.00 | 1 nM |
| CC(C)(c1ccccn1)C(CC(=O)O)Nc1nc(-c2c[nH]c3ncc(Cl)cc23)c(C#N)cc1F (stereo not drawn) | 9.33 |  |
| CC(C)(c1ccccn1)C(CC(=O)O)Nc1nc(-c2c[nH]c3ncncc23)ncc1F (stereo not drawn) | 5.72 |  |
| CC(C)(c1ccccn1)[C@H](CC(=O)O)Nc1nc(-c2c[nH]c3ncc(Cl)cc23)c(C#N)cc1F (single isomer, unassigned) | 10.12 | 0.00631 nM |
| CC(C)(c1ccccn1)[C@@H](CC(=O)O)Nc1nc(-c2c[nH]c3ncc(Cl)cc23)c(C#N)cc1F (single isomer, unassigned) | 8.27 | 5.01 nM |

Source: patent US10526338B2, “Functionalized pentanoic acids for use influenza viral infections” (Janssen Sciences Ireland UC, priority 2016, dated 2020)
